Assays:
Assay in all cases: relative viability (nuclei count vs DMSO), 5 days (fraction); higher = more cells survive
[1] = tested on: 201T
Method in brief: (§1)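 Relative viability divides the nuclei count in treated wells by that in vehicle wells. Lung cancer cell lines were seeded in 1536-well plates, dosed by pin tool the next day, and fixed and stained after 5 days in one step with final 0.05% Triton X-100, 1% formaldehyde and 1 ug/ml Hoechst. Dosing was a single drug or a fixed anchor-drug dose plus five library-drug doses (not always all listed) in √10 steps, and values are medians of duplicate plates imaged at 4×.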

[2] = tested on: A-427
Method in brief: as §1

[3] = tested on: COR-L 105
Method in brief: as §1

[4] = tested on: COR-L23
Method in brief: as §1

[5] = tested on: EKVX
Method in brief: as §1

[6] = tested on: HARA
Method in brief: as §1

[7] = tested on: HCC-15
Method in brief: as §1

[8] = tested on: HCC-44
Method in brief: as §1

[9] = tested on: HCC-827
Method in brief: as §1

[10] = tested on: LCLC-103H
Method in brief: as §1

[11] = tested on: LK-2
Method in brief: as §1

[12] = tested on: NCI-H1437
Method in brief: as §1

[13] = tested on: NCI-H1666
Method in brief: as §1

[14] = tested on: NCI-H1975
Method in brief: as §1

[15] = tested on: NCI-H23
Method in brief: as §1

[16] = tested on: NCI-H441
Method in brief: as §1

[17] = tested on: NCI-H520
Method in brief: as §1

[18] = tested on: NCI-H522
Method in brief: as §1

[19] = tested on: NCI-H596
Method in brief: as §1

[20] = tested on: NCI-H650
Method in brief: as §1

[21] = tested on: NCI-H838
Method in brief: as §1

[22] = tested on: SK-MES-1
Method in brief: as §1

[23] = tested on: SW 900
Method in brief: as §1

`COc1cc(N2CCC(C(N)=O)CC2)ccc1Nc1nc(N)c(Cl)c(Nc2ccccc2S(=O)(=O)C(C)C)n1` [HG-5-88-01] + O=C(CCCCCCC(=O)Nc1ccccc1)NO [Vorinostat] (partner 1 µM) gave a relative viability ([1]; first compound 0.04 µM) of 0.984, a relative viability ([1]; first compound 0.1265 µM) of 0.94 and a relative viability ([1]; first compound 1.265 µM) of 0.883. For the same molecule, the relative viability ([1]; first compound 4 µM) was 1.11, the relative viability ([2]; first compound 0.04 µM) was 0.892 and the relative viability ([2]; first compound 0.1265 µM) was 0.859. For the same molecule, the relative viability ([2]; first compound 0.4 µM) was 0.884, the relative viability ([2]; first compound 1.265 µM) was 0.912 and the relative viability ([2]; first compound 4 µM) was 0.726. The relative viability ([3]; first compound 0.04 µM) was 0.849, the relative viability ([3]; first compound 0.1265 µM) was 0.722 and the relative viability ([3]; first compound 0.4 µM) was 0.847. It also gave a relative viability ([3]; first compound 1.265 µM) of 0.639, a relative viability ([3]; first compound 4 µM) of 0.59 and a relative viability ([4]; first compound 0.04 µM) of 0.496. For the same molecule, the relative viability ([4]; first compound 0.1265 µM) was 0.381, the relative viability ([4]; first compound 0.4 µM) was 0.355 and the relative viability ([4]; first compound 1.265 µM) was 0.364. The relative viability ([4]; first compound 4 µM) was 0.227, the relative viability ([5]; first compound 0.04 µM) was 0.789 and the relative viability ([5]; first compound 0.1265 µM) was 0.775. The relative viability ([5]; first compound 0.4 µM) was 0.712, the relative viability ([5]; first compound 4 µM) was 0.63 and the relative viability ([6]; first compound 0.04 µM) was 0.532. It also gave a relative viability ([6]; first compound 0.1265 µM) of 0.526, a relative viability ([6]; first compound 0.4 µM) of 0.585 and a relative viability ([6]; first compound 1.265 µM) of 0.577. The relative viability ([6]; first compound 4 µM) was 0.507, the relative viability ([7]; first compound 0.04 µM) was 0.822 and the relative viability ([7]; first compound 0.1265 µM) was 0.916. For the same molecule, the relative viability ([7]; first compound 0.4 µM) was 0.761, the relative viability ([7]; first compound 1.265 µM) was 0.833 and the relative viability ([7]; first compound 4 µM) was 0.786. For the same molecule, the relative viability ([8]; first compound 0.04 µM) was 1.07, the relative viability ([8]; first compound 0.1265 µM) was 1.14 and the relative viability ([8]; first compound 0.4 µM) was 1.05. It also gave a relative viability ([8]; first compound 1.265 µM) of 1.08, a relative viability ([8]; first compound 4 µM) of 1.14 and a relative viability ([9]; first compound 0.04 µM) of 0.829. For the same molecule, the relative viability ([9]; first compound 0.1265 µM) was 0.807, the relative viability ([9]; first compound 0.4 µM) was 0.87 and the relative viability ([9]; first compound 1.265 µM) was 0.335. It also gave a relative viability ([9]; first compound 4 µM) of 0.235, a relative viability ([10]; first compound 0.04 µM) of 0.826 and a relative viability ([10]; first compound 0.1265 µM) of 0.767. For the same molecule, the relative viability ([10]; first compound 0.4 µM) was 0.65, the relative viability ([10]; first compound 1.265 µM) was 0.757 and the relative viability ([10]; first compound 4 µM) was 0.605. For the same molecule, the relative viability ([11]; first compound 0.04 µM) was 0.326, the relative viability ([11]; first compound 0.1265 µM) was 0.411 and the relative viability ([11]; first compound 0.4 µM) was 0.466. For the same molecule, the relative viability ([11]; first compound 4 µM) was 0.306, the relative viability ([12]; first compound 0.04 µM) was 0.899 and the relative viability ([12]; first compound 0.1265 µM) was 0.897. For the same molecule, the relative viability ([12]; first compound 0.4 µM) was 0.645, the relative viability ([12]; first compound 1.265 µM) was 0.78 and the relative viability ([12]; first compound 4 µM) was 0.613. The relative viability ([13]; first compound 0.04 µM) was 0.984, the relative viability ([13]; first compound 0.1265 µM) was 1 and the relative viability ([13]; first compound 0.4 µM) was 0.975. The relative viability ([13]; first compound 1.265 µM) was 0.92, the relative viability ([13]; first compound 4 µM) was 0.828 and the relative viability ([14]; first compound 0.04 µM) was 0.734. The relative viability ([14]; first compound 0.1265 µM) was 0.711, the relative viability ([14]; first compound 0.4 µM) was 0.689 and the relative viability ([14]; first compound 1.265 µM) was 0.612. It also gave a relative viability ([14]; first compound 4 µM) of 0.35, a relative viability ([15]; first compound 0.04 µM) of 0.793 and a relative viability ([15]; first compound 0.1265 µM) of 0.752. The relative viability ([15]; first compound 0.4 µM) was 0.609, the relative viability ([15]; first compound 1.265 µM) was 0.538 and the relative viability ([15]; first compound 4 µM) was 0.307. The relative viability ([16]; first compound 0.04 µM) was 0.779, the relative viability ([16]; first compound 0.1265 µM) was 0.736 and the relative viability ([16]; first compound 0.4 µM) was 0.678. It also gave a relative viability ([16]; first compound 1.265 µM) of 0.865, a relative viability ([16]; first compound 4 µM) of 0.725 and a relative viability ([17]; first compound 0.04 µM) of 0.747. For the same molecule, the relative viability ([17]; first compound 0.1265 µM) was 0.601, the relative viability ([17]; first compound 0.4 µM) was 0.803 and the relative viability ([17]; first compound 1.265 µM) was 0.79. It also gave a relative viability ([17]; first compound 4 µM) of 0.781, a relative viability ([18]; first compound 0.04 µM) of 0.923 and a relative viability ([18]; first compound 0.1265 µM) of 0.855. The relative viability ([18]; first compound 0.4 µM) was 0.784, the relative viability ([18]; first compound 1.265 µM) was 0.667 and the relative viability ([18]; first compound 4 µM) was 0.671. For the same molecule, the relative viability ([19]; first compound 0.04 µM) was 0.604, the relative viability ([19]; first compound 0.1265 µM) was 0.597 and the relative viability ([19]; first compound 0.4 µM) was 0.641. For the same molecule, the relative viability ([19]; first compound 1.265 µM) was 0.571, the relative viability ([19]; first compound 4 µM) was 0.532 and the relative viability ([20]; first compound 0.04 µM) was 0.409. The relative viability ([20]; first compound 0.1265 µM) was 0.402, the relative viability ([20]; first compound 0.4 µM) was 0.386 and the relative viability ([20]; first compound 1.265 µM) was 0.424. The relative viability ([20]; first compound 4 µM) was 0.29, the relative viability ([21]; first compound 0.04 µM) was 0.745 and the relative viability ([21]; first compound 0.1265 µM) was 0.707. For the same molecule, the relative viability ([21]; first compound 0.4 µM) was 0.651, the relative viability ([21]; first compound 1.265 µM) was 0.596 and the relative viability ([21]; first compound 4 µM) was 0.53. It also gave a relative viability ([22]; first compound 0.04 µM) of 1.14, a relative viability ([22]; first compound 0.1265 µM) of 1.03 and a relative viability ([22]; first compound 0.4 µM) of 1.1. The relative viability ([22]; first compound 1.265 µM) was 0.979, the relative viability ([22]; first compound 4 µM) was 1.21 and the relative viability ([23]; first compound 0.04 µM) was 0.583. For the same molecule, the relative viability ([23]; first compound 0.1265 µM) was 0.334, the relative viability ([23]; first compound 0.4 µM) was 0.525 and the relative viability ([23]; first compound 1.265 µM) was 0.447. For the same molecule, the relative viability ([23]; first compound 4 µM) was 0.354.

Reference: the supplement of paper PMC10307832
